In the NIST ThermoML archive (doi:10.1021/acs.jced.7b00505) one finds viscosity, mass density and interfacial tension data, which are given here for three molecules.

± gives the expanded uncertainty stated by the source.

The conditions of data set [1]: 298.15 K, Liquid; for viscosity: Capillary tube (Ostwald / Ubbelohde) method.
The conditions of data set [2]: 298.15 K; 101.7 kPa; Liquid mixture 1; Pendant drop shape.

`Cc1ccccc1` [toluene]: the viscosity in data set [1] (101 kPa) is on record as 0.554 ± 0.04 mPa·s. Moreover, in data set [1] (101.7 kPa, Vibrating tube method), the mass density was 860.8 ± 2 kg/m3.
For `Cc1ccccc1` [toluene] + O, the interfacial tension in data set [2] is on record as 36.2 ± 3.6 mN/m.
For the molecule `O` [water], in data set [1] (101.7 kPa), the viscosity came out at 0.8958 ± 0.041 mPa·s.

The term viscosity denotes the internal friction of a fluid under shear. A word on the mass density: it is the mass of a sample divided by its volume.
